Measurements taken from publication PMC4172726, “3-Dimensional Culture Systems for Anti-Cancer Compound Profiling and High-Throughput Screening Reveal Increases in EGFR Inhibitor-Mediated Cytotoxicity Compared to Monolayer Culture Systems” (PLoS ONE, 2014).
pEC50: −log10 of the molar value. Where two headings read alike, the source gives them in different places.

Columns and labels:
[1] = system: wild type K-Ras colon cancer cells; set-up: method as in PMID 23555746; conditions: 3D spheroids in laminin-rich extracellular matrix, concomitant reduction in EGFR levels; cited from earlier work
BT-474 cells [2] = assay: Cytotoxicity concentration-response assay (CellTiter GLO, cellular ATP) in BT-474 cells cultured in 2D or 3D
MCF-10A cells [3] = assay: Single concentration primary screen of ADC library, ATP content, MCF-10A cells 2D and 3D; type: cell-based, human; conditions: MCF-10A normal cells, 5 µM, 48 h
Protocol: For single concentration point primary screens, the BT-474 cells were seeded at 3000 cells/well (in RPMI+10% FBS+PSG medium) and the MCF-10A cells at 1000 cells per well (in 50/50 DMEM/F12, 5% FHS, 0.5 µg/mL hydrocortisone, 5 µg/mL insulin, 5 ng/mL rhEGF, PSG) in 96-well Corning #3595 (for 2D) or Corning #7007 (for 3D) plates. Dilution plates were made by diluting the compounds 1∶1 with 50% medium/50% DMSO to yield a final concentration of 5 µM per well.

BT-474 cells [4] = assay: Single concentration primary screen of ADC library, ATP content, BT-474 cells 2D and 3D; conditions: 5 µM; for hit in primary screen (decreasing ATP content by 50% or more compared to vehicle treated cells): BT-474 tumor cells, 48 h, 2D and 3D; for selectivity for BT-474 cells over MCF-10A cells in primary screen: 3D culture conditions
MCF-10A cells [5] = assay: Cytotoxicity concentration-response assay (CellTiter GLO, cellular ATP) in MCF-10A cells cultured in 2D or 3D; type: cell-based, human; conditions: MCF-10A 3D spheroid, 48 h treatment, read-out: EC50 (concentration at which the compound reduces cell viability by 50%)
Protocol: To generate 3D miniature cultures for HTS, cells were seeded at a cell number observed to consistently form a single, uniformly round spheroid.
(§1) To quantitate cellular ATP as a measure of viability, 50 µL of CellTiter GLO reagent (Promega) was added to each well. […] In addition, spheroids were triturated six times to promote complete lysis.

BT-474+HF+HE co-cultures = assay: Concentration-response cell viability assay (CellTiterGLO) in BT-474+HF+HE co-cultures; type: cell-based, human; conditions: for pEC50: Homo sapiens, 48 h, 15-point concentration response
Protocol: (§2) For co-cultures in 3D, trypsinized cells were counted and mixed together to be seeded into 96-well round-bottom ultralow attachment plates (Corning #7007). As indicated in the legends, either the total cell number was held at 3000 cells per well, or 3000 BT-474 cells were seeded together with 1500 HFs and/or HUVECs. As we observed with the monotypic spheroids, the co-cultures also spontaneously formed one spheroid per well during the 48-hour incubation period. By analysis of ATP levels, the co-culture spheroids were viable for 5 days without a medium change or addition of supplements. All the co-cultures were maintained in a 1∶1∶1 mixture of RPMI:DMEM:EGM-2 complete media. The 2D co-cultures were plated at the same ratio of cells in the same mixed medium, but in flat bottom 96-well tissue culture plates (Corning #3595). Forty-eight hours after plating, the 2D or 3D cells were used for cytotoxicity assays, screening, or immunostaining as described in subsequent Methods sections.
as §1
(§3) For the co-culture screens, serial dilution primary screening was used. The cells were seeded in 96-well plates at 1500 HF+1500 HUVEC cells per well for the human fibroblast and human endothelial cell (HF+HE) co-cultures (in EGM-2 complete medium), or 750 HF+750 HUVEC+1500 BT-474 for the BT-474+HF+HE co-cultures (in 1∶1 RPMI+10% FBS+PSG: EGM-2 complete medium). Cells seeded in Corning #7007 round bottom, ultra-low attachment plates formed a single 3D spheroid per well while cells seeded in Corning #3595 flat bottom, tissue culture-treated plates attached as a 2D monolayer. […] Spheroid lysis was further aided by mixing 100 µl of volume using the STAR liquid handler, and then 75 µl was transferred to a Greiner Lumitrac 96-well plate for luminescence reading on a PE Envision plate reader. For the monolayer plates, 75 µl was transferred to the Greiner Lumitrac plates per well, and also read on the PE Envision.

[6] = system: HF cells cultured as 3D spheroids; assay: Cell viability assay of HF spheroids (Figure S1A)
Protocol: All spheroids were cultured and treated as in Figure 3A–B. Figure represents 2 experiments performed in duplicate and table utilizes EC50 values from Figure 3 as a direct comparison. B, immunofluorescent and brightfield overlay images of BT-474 cells (3 k cells, brightfield), HEs (1 k cells, green) and HFs (1 k cells, red) cultured as spheroids for 48 h before addition of vehicle (0.1% DMSO, left panel) or 10 µM Lapatinib for 48 h (right panel).

HF+HE co-cultures = assay: Concentration-response cell viability assay (CellTiterGLO) in HF+HE co-cultures; type: cell-based, human; conditions: for pEC50: Homo sapiens, 48 h, 15-point concentration response
Protocol: as §2, §1, §3

[7] = Homo sapiens, BT-474, 48 h, read-out: EC50 (concentration at which the compound reduces cell viability by 50%), BT-474 3D spheroid, 48 h treatment

In the case of `COc1cc2ncnc(Nc3cccc(Cl)c3)c2cc1OC` [AG-1478, Tyrphostin AG1478], the “sensitivity in 3D spheroids” value [1] is given as “decreased sensitivity”.

For `Cc1nc(Nc2ncc(C(=O)Nc3c(C)cccc3Cl)s2)cc(N2CCN(CCO)CC2)n1` [dasatinib], the pEC50 (BT-474 cells [2]; [7]) was > 5.00, the pEC50 (BT-474 cells [2]; Homo sapiens, BT-474, read-out: calculated EC50 values in confirmatory dose response assays, BT-474, culture condition (2D/3D) not given) was 5.10 to 5.22 and the pEC50 (BT-474 cells [2]; read-out: EC50 (concentration at which the compound reduces cell viability by 50%), BT-474 3D spheroid, 48 h treatment) was 5.09. For the same compound, the “hit in primary screen (decreasing ATP content by 50% or more compared to vehicle treated cells)” value (MCF-10A cells [3]) was “only under 2D culture conditions” and the “hit in primary screen (decreasing ATP content by 50% or more compared to vehicle treated cells)” value (BT-474 cells [4]) was “hits under both 2D and 3D culture conditions”.

With `CS(=O)(=O)CCNCc1ccc(-c2ccc3ncnc(Nc4ccc(OCc5cccc(F)c5)c(Cl)c4)c3c2)o1` [lapatinib] the “sensitivity of BT-474 spheroids compared to BT-474+HF+HE co-cultures” value (BT-474 cells [2]; 3D spheroids) was “more sensitive”, the pEC50 (MCF-10A cells [5]; Homo sapiens, MCF-10A, 48 h) was < 5.30 and the pEC50 (MCF-10A cells [5]) was 5.01. For the same compound, the “hit in primary screen (decreasing ATP content by 50% or more compared to vehicle treated cells)” value (MCF-10A cells [3]) was “only under 2D culture conditions”, the “difference in sensitivity between 3D BT-474+HF+HE and 3D HF+HE co-cultures” value (BT-474+HF+HE co-cultures; 3D, ratio of EC50 values) was “about 30 fold” and the pEC50 (BT-474+HF+HE co-cultures; BT-474+HF+HE 2D co-culture) was 5.46. The pEC50 (BT-474+HF+HE co-cultures; BT-474+HF+HE 3D co-culture) was 6.05, the “hit in primary screen (decreasing ATP content by 50% or more compared to vehicle treated cells)” value (BT-474 cells [4]) was “hits under both 2D and 3D culture conditions” and the “fold less sensitive than BT-474 cancer cell spheroids” value [6] was 10 fold. The “fold less sensitive than BT-474 cancer cell spheroids” value (HF+HE co-cultures; HF+HE spheroids, 3D, Figure S1A) was 100 fold, the pEC50 (HF+HE co-cultures; HF+HE 2D co-culture) was 5.57 and the pEC50 (HF+HE co-cultures; HF+HE 3D co-culture) was 4.52.

For `CCC1=C[C@@H]2CN(C1)Cc1c([nH]c3ccccc13)[C@@](C(=O)OC)(c1cc3c(cc1OC)N(C)[C@H]1[C@@](O)(C(=O)OC)[C@H](OC(C)=O)[C@]4(CC)C=CCN5CC[C@]31[C@@H]54)C2` [vinorelbine], the pEC50 (BT-474 cells [2]; [7]) was 5.28, the pEC50 (MCF-10A cells [5]; Homo sapiens, MCF-10A, 48 h) was < 4.00 and the “hit in primary screen (decreasing ATP content by 50% or more compared to vehicle treated cells)” value (MCF-10A cells [3]) was “we did not identify vinorelbine as a “hit””. For the same compound, the “selectivity for BT-474 cells over MCF-10A cells in primary screen” value (BT-474 cells [4]) was “slight selectivity”.

In the case of `COc1cc2ncnc(Nc3ccc(F)c(Cl)c3)c2cc1OCCCN1CCOCC1` [gefitinib], the “hit in primary screen (decreasing ATP content by 50% or more compared to vehicle treated cells)” value (MCF-10A cells [3]) was “only under 2D culture conditions” and the “hit in primary screen (decreasing ATP content by 50% or more compared to vehicle treated cells)” value (BT-474 cells [4]) was “hits under both 2D and 3D culture conditions”.

For `CC[C@]1(O)C[C@@H]2CN(CCc3c([nH]c4ccccc34)[C@@](C(=O)OC)(c3cc4c(cc3OC)N(C)[C@H]3[C@@](O)(C(=O)OC)[C@H](OC(C)=O)[C@]5(CC)C=CCN6CC[C@]43[C@@H]65)C2)C1` [vinblastine], the “selectivity for BT-474 cells over MCF-10A cells in primary screen” value (BT-474 cells [4]) was “slight selectivity”.
